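Each compound was tested at five concentrations against cells in 96-well plates for 48 hours. The concentration for 50% growth inhibition is given as GI50.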 Active and inactive are the calls of the source. Rule as the data show it: active = GI50 up to about 1.1 µM and inactive = higher.
What was measured:
Test in all cases: NCI-60 cell line screen, 48 h
EKVX = system: EKVX
PC-3 = system: PC-3
NCI-H226 = system: NCI-H226
NCI/ADR-RES = system: NCI/ADR-RES
SF-268 = system: SF-268
HCC 2998 = system: HCC 2998
RXF 393 = system: RXF 393
OVCAR-8 = system: OVCAR-8
UACC-257 = system: UACC-257
HOP-92 = system: HOP-92
BT-549 = system: BT-549
SR = system: SR
T47D = system: T47D
K562 = system: K562
786-0 = system: 786-0
HL-60 = system: HL-60
CAKI-1 = system: CAKI-1
SK-MEL-28 = system: SK-MEL-28
U-251 = system: U-251
SW-620 = system: SW-620
A498 = system: A498
NCI-H522 = system: NCI-H522
COLO 205 = system: COLO 205
SNB-75 = system: SNB-75
HCT-15 = system: HCT-15
NCI-H23 = system: NCI-H23
ACHN = system: ACHN
HCT-116 = system: HCT-116
SK-MEL-5 = system: SK-MEL-5
M14 = system: M14
Hs-578T = system: Hs-578T
DU-145 = system: DU-145
LOX IMVI = system: LOX IMVI
MDA-MB-231 = system: MDA-MB-231
UACC-62 = system: UACC-62
NCI-H460 = system: NCI-H460
SNB-19 = system: SNB-19
MDA-MB-435 = system: MDA-MB-435
KM12 = system: KM12
TK-10 = system: TK-10
HT-29 = system: HT-29
OVCAR-5 = system: OVCAR-5
SK-MEL-2 = system: SK-MEL-2
SF-539 = system: SF-539
SN12C = system: SN12C
IGROV-1 = system: IGROV-1
MDA-N = system: MDA-N
Malme-3M = system: Malme-3M
OVCAR-4 = system: OVCAR-4
A549 = system: A549
RPMI-8226 = system: RPMI-8226
MCF7 = system: MCF7
UO-31 = system: UO-31
CCRF-CEM = system: CCRF-CEM
SF-295 = system: SF-295
OVCAR-3 = system: OVCAR-3
HOP-62 = system: HOP-62
SK-OV-3 = system: SK-OV-3
MOLT-4 = system: MOLT-4

Cc1cc(=O)oc2cc(O)c(CN(C)CC(=O)O)cc12
GI50 (EKVX): > 100 µM (inactive) | GI50 (PC-3): > 100 µM (inactive) | GI50 (NCI-H226): > 100 µM (inactive) | GI50 (NCI/ADR-RES): > 100 µM (inactive) | GI50 (SF-268): > 100 µM (inactive) | GI50 (HCC 2998): > 100 µM (inactive) | GI50 (RXF 393): > 100 µM (inactive) | GI50 (OVCAR-8): > 100 µM (inactive) | GI50 (UACC-257): > 100 µM (inactive) | GI50 (HOP-92): > 100 µM (inactive) | GI50 (BT-549): > 100 µM (inactive) | GI50 (SR): > 100 µM (inactive) | GI50 (T47D): > 100 µM (inactive) | GI50 (K562): > 100 µM (inactive) | GI50 (786-0): > 100 µM (inactive) | GI50 (HL-60): > 100 µM (inactive) | GI50 (CAKI-1): > 100 µM (inactive) | GI50 (SK-MEL-28): > 100 µM (inactive) | GI50 (U-251): > 100 µM (inactive) | GI50 (SW-620): > 100 µM (inactive) | GI50 (A498): > 100 µM (inactive) | GI50 (NCI-H522): > 100 µM (inactive) | GI50 (COLO 205): > 100 µM (inactive) | GI50 (SNB-75): > 100 µM (inactive) | GI50 (HCT-15): > 100 µM | GI50 (NCI-H23): > 100 µM (inactive) | GI50 (ACHN): > 100 µM (inactive) | GI50 (HCT-116): > 100 µM (inactive) | GI50 (SK-MEL-5): > 100 µM (inactive) | GI50 (M14): > 100 µM (inactive) | GI50 (Hs-578T): > 100 µM (inactive) | GI50 (DU-145): > 100 µM (inactive) | GI50 (LOX IMVI): > 100 µM (inactive) | GI50 (MDA-MB-231): > 100 µM (inactive) | GI50 (UACC-62): > 100 µM (inactive) | GI50 (NCI-H460): > 100 µM (inactive) | GI50 (SNB-19): > 100 µM (inactive) | GI50 (MDA-MB-435): > 100 µM (inactive) | GI50 (KM12): > 100 µM (inactive) | GI50 (TK-10): > 100 µM (inactive) | GI50 (HT-29): > 100 µM (inactive) | GI50 (OVCAR-5): > 100 µM (inactive) | GI50 (SK-MEL-2): > 100 µM (inactive) | GI50 (SF-539): > 100 µM (inactive) | GI50 (SN12C): > 100 µM (inactive) | GI50 (IGROV-1): > 100 µM (inactive) | GI50 (MDA-N): > 100 µM (inactive) | GI50 (Malme-3M): > 100 µM (inactive) | GI50 (OVCAR-4): > 100 µM (inactive) | GI50 (A549): > 100 µM (inactive) | GI50 (RPMI-8226): > 100 µM (inactive) | GI50 (MCF7): > 100 µM (inactive) | GI50 (UO-31): > 100 µM (inactive)

CCCn1cnc2c(SCc3ccc(Cl)cc3)nc(N)nc21
GI50 (EKVX): 15.5 µM (inactive) | GI50 (CCRF-CEM): 34.2 µM (inactive) | GI50 (PC-3): 21.2 µM (inactive) | GI50 (NCI/ADR-RES): 22.6 µM (inactive) | GI50 (SF-268): 36.3 µM (inactive) | GI50 (HCC 2998): 20 µM (inactive) | GI50 (RXF 393): 22.3 µM (inactive) | GI50 (OVCAR-8): 40.1 µM (inactive) | GI50 (UACC-257): 18.5 µM (inactive) | GI50 (HOP-92): 44.5 µM (inactive) | GI50 (BT-549): 29.1 µM (inactive) | GI50 (SR): 13.5 µM (inactive) | GI50 (T47D): 18.9 µM (inactive) | GI50 (K562): 16.2 µM (inactive) | GI50 (SF-295): 21.6 µM (inactive) | GI50 (786-0): 29.6 µM (inactive) | GI50 (HL-60): 18.2 µM (inactive) | GI50 (CAKI-1): 24.8 µM (inactive) | GI50 (SK-MEL-28): 29 µM (inactive) | GI50 (U-251): 23.1 µM (inactive) | GI50 (OVCAR-3): 17.2 µM (inactive) | GI50 (SW-620): 36.3 µM (inactive) | GI50 (A498): 16.7 µM (inactive) | GI50 (NCI-H522): 16.5 µM (inactive) | GI50 (SNB-75): 21.9 µM (inactive) | GI50 (HCT-15): 27.3 µM | GI50 (NCI-H23): 31 µM (inactive) | GI50 (ACHN): 16.3 µM (inactive) | GI50 (HOP-62): 17.3 µM (inactive) | GI50 (HCT-116): 19.4 µM (inactive) | GI50 (SK-MEL-5): 15.3 µM (inactive) | GI50 (M14): 32.4 µM (inactive) | GI50 (Hs-578T): 47.2 µM (inactive) | GI50 (DU-145): 36.6 µM (inactive) | GI50 (LOX IMVI): 22 µM (inactive) | GI50 (MDA-MB-231): 16.9 µM (inactive) | GI50 (UACC-62): 21.6 µM (inactive) | GI50 (NCI-H460): 18.7 µM (inactive) | GI50 (SNB-19): 51.6 µM (inactive) | GI50 (MDA-MB-435): 23.1 µM (inactive) | GI50 (KM12): 21.5 µM (inactive) | GI50 (TK-10): 13.5 µM (inactive) | GI50 (HT-29): 19.9 µM (inactive) | GI50 (OVCAR-5): 28.4 µM (inactive) | GI50 (SK-MEL-2): 18.4 µM (inactive) | GI50 (SN12C): 19.7 µM (inactive) | GI50 (IGROV-1): 40.4 µM (inactive) | GI50 (MDA-N): 21.9 µM (inactive) | GI50 (Malme-3M): 26.9 µM (inactive) | GI50 (OVCAR-4): 32.7 µM (inactive) | GI50 (SK-OV-3): 27.9 µM (inactive) | GI50 (A549): 39.4 µM (inactive) | GI50 (RPMI-8226): 16.1 µM (inactive) | GI50 (MCF7): 31 µM (inactive) | GI50 (UO-31): 5.85 µM (inactive)

O=C(O)c1nc(-c2ccccc2)ncc1-c1nnnn1-c1ccccc1
GI50 (EKVX): > 100 µM (inactive) | GI50 (CCRF-CEM): > 100 µM (inactive) | GI50 (MOLT-4): > 100 µM (inactive) | GI50 (PC-3): > 100 µM (inactive) | GI50 (NCI-H226): > 100 µM (inactive) | GI50 (NCI/ADR-RES): > 100 µM (inactive) | GI50 (SF-268): > 100 µM (inactive) | GI50 (HCC 2998): > 100 µM (inactive) | GI50 (RXF 393): > 100 µM (inactive) | GI50 (OVCAR-8): > 100 µM (inactive) | GI50 (UACC-257): > 100 µM (inactive) | GI50 (HOP-92): > 100 µM (inactive) | GI50 (BT-549): > 100 µM (inactive) | GI50 (SR): > 100 µM (inactive) | GI50 (T47D): > 100 µM (inactive) | GI50 (K562): > 100 µM (inactive) | GI50 (SF-295): > 100 µM (inactive) | GI50 (786-0): > 100 µM (inactive) | GI50 (HL-60): > 100 µM (inactive) | GI50 (CAKI-1): > 100 µM (inactive) | GI50 (SK-MEL-28): > 100 µM (inactive) | GI50 (U-251): > 100 µM (inactive) | GI50 (OVCAR-3): > 100 µM (inactive) | GI50 (SW-620): > 100 µM (inactive) | GI50 (A498): > 100 µM (inactive) | GI50 (NCI-H522): > 100 µM (inactive) | GI50 (COLO 205): > 100 µM (inactive) | GI50 (SNB-75): > 100 µM (inactive) | GI50 (HCT-15): > 100 µM | GI50 (NCI-H23): > 100 µM (inactive) | GI50 (ACHN): > 100 µM (inactive) | GI50 (HOP-62): > 100 µM (inactive) | GI50 (HCT-116): > 100 µM (inactive) | GI50 (SK-MEL-5): > 100 µM (inactive) | GI50 (M14): > 100 µM (inactive) | GI50 (Hs-578T): > 100 µM (inactive) | GI50 (DU-145): > 100 µM (inactive) | GI50 (LOX IMVI): > 100 µM (inactive) | GI50 (MDA-MB-231): > 100 µM (inactive) | GI50 (UACC-62): > 100 µM (inactive) | GI50 (NCI-H460): > 100 µM (inactive) | GI50 (SNB-19): > 100 µM (inactive) | GI50 (MDA-MB-435): > 100 µM (inactive) | GI50 (KM12): > 100 µM (inactive) | GI50 (TK-10): > 100 µM (inactive) | GI50 (HT-29): > 100 µM (inactive) | GI50 (OVCAR-5): > 100 µM (inactive) | GI50 (SK-MEL-2): > 100 µM (inactive) | GI50 (SF-539): > 100 µM (inactive) | GI50 (SN12C): > 100 µM (inactive) | GI50 (IGROV-1): > 100 µM (inactive) | GI50 (MDA-N): > 100 µM (inactive) | GI50 (Malme-3M): > 100 µM (inactive) | GI50 (SK-OV-3): > 100 µM (inactive) | GI50 (A549): > 100 µM (inactive) | GI50 (RPMI-8226): > 100 µM (inactive) | GI50 (MCF7): > 100 µM (inactive) | GI50 (UO-31): > 100 µM (inactive)

— ChEMBL document CHEMBL1201862, “PubChem BioAssay data set” (2004)
